Test results: patent publication US9388126B2, “Sigma receptor ligands and methods of modulating cellular protein homeostasis using same” (Drexel University, priority 2012, dated 2016)
Values joined by “and” are separate entries in the source; they are usually repeats but may differ in a detail not shown here. Equal values may be shown once.

Experiments:
Type in all cases: cell-based, human
MDA-MB-468 cells = assay: Cell size by flow cytometry (mean FSC-H, G1 phase); details: 10 μM
Experimental: FIG. 11 is a graph illustrating decrease in MDAMB468 cell size associated with the Sigma1 antagonist treatment. MDA-MB-468 cells were treated for 24 hours with DMSO (control), 10 μM IPAG (antagonist), or 10 μM PRE084 (agonist). Cell size was quantitated by flow cytometry, using a Becton Dickinson FACS Calibur flow cytometer with Cell Quest software. The mean forward scatter height (FSC-H) of the G1-phase population was determined as a measure of relative cell size. Single cells were gated away from aggregated cells using an FL2-width versus FL-2 area dot plot. Mean FSC-H±S.E. was calculated from at least 4 independent determinations. For each FSC-H determination, FACS analysis was performed on 10,000 single cells. The mean FSC-H of DMSO (control) and PRE084 treated MDA-MB-468 measured 370±6 and 372±7, respectively, whereas the mean FSC-H of IPAG treated MDA-MB-468 cells was 323±4. ** P<0.01 for IPAG compared to DMSO and IPAG compared to PRE084.
FIG. 31A is a differential interference contrast (DIC) image of MDA-MB-468 breast adenocarcinoma cells treated for ˜20 hours with DMSO (drug vehicle control), 10 μM IPAG (antagonist) or 10 μM PRE084 (agonist). A twenty-micron bar is shown in each image. Data are presented as mean±SEM. FIG. 31B is a graph illustrating the finding that IPAG diminished the mean cell size (FSC-H) of MDA-MB-468 breast tumor cells in a time-responsive manner. The mean FSC-H of 370±5 at to decreased to 323±4 after 24 hours of IPAG treatment and to 267±2 after 48 hours of treatment. Two-tailed t-tests were performed to determine statistical significance. For IPAG treatment compared to control (DMSO) and Sigma agonists (SKF and PRE084), P=0.0002 at d1 and P=0.00013 at d2. Data were generated from three to five independent determinations for each time-point. […] T-47D were treated for 24 h with 1 and 10 μM IPAG, and mean FSC-H was measured. […] For FIGS. 31B-31E, the mean FSC-H was determined for each cell cycle population (i.e., G1, S, G2/M), and data is shown for G1 phase cells. […]

PC3 and DU145 PCa cells = assay: UPR induction in prostate cancer cell lines; details: preliminary experiments
Text: FIG. 15 is an image of an immunoblot illustrating induction of UPR in a prostate cancer cell line. […] P-IRE1α indicates phosphorylated IRE1α. Similar results were obtained with DU145 prostate cancer cells.
This might be due to an accumulation of ubiquitylated proteins or due to an increase in ubiquitin ligase activity. Progression of the ER stress response could be monitored by a set of markers, many of which have been directly linked to the UPR. The most extensively investigated sensors that initiate the UPR are IRE1α, PERK, and ATF6, which transduce signals to a cascade of effectors. Many of these UPR 4 effectors function as transcription factors that induce the synthesis of ER chaperones, such as GRP78/BiP and GRP94, involved in maintaining protein homeostasis.

[1] = test system: T-47D breast adenocarcinoma cells; assay: Cell size by flow cytometry (mean FSC-H, G1 phase); details: 10 μM
Experimental: FIG. 31A is a differential interference contrast (DIC) image of MDA-MB-468 breast adenocarcinoma cells treated for ˜20 hours with DMSO (drug vehicle control), 10 μM IPAG (antagonist) or 10 μM PRE084 (agonist). A twenty-micron bar is shown in each image. Data are presented as mean±SEM. FIG. 31B is a graph illustrating the finding that IPAG diminished the mean cell size (FSC-H) of MDA-MB-468 breast tumor cells in a time-responsive manner. The mean FSC-H of 370±5 at to decreased to 323±4 after 24 hours of IPAG treatment and to 267±2 after 48 hours of treatment. Two-tailed t-tests were performed to determine statistical significance. For IPAG treatment compared to control (DMSO) and Sigma agonists (SKF and PRE084), P=0.0002 at d1 and P=0.00013 at d2. Data were generated from three to five independent determinations for each time-point. Flow cytometry was used to measure mean cell size (mean FSC-H) of T-47D breast adenocarcinoma cells. FIG. 31C is a bar graph illustrating T-47D cells treated for 24 hours with 10 μM indicated Sigma ligand. IPAG and BD 1047 (Sigma1 antagonists) diminished cell size from a mean FSC-H of 412±5 for control (DMSO) cells versus 341±7 and 381±8 for IPAG and BD1047 treated cells, respectively. […] Data represent 5 independent determinations (*P<0.05, ***P<0.001). FIG. 31D is a bar graph illustrating how IPAG (antagonist) decreases cell size in a dose responsive manner. T-47D were treated for 24 h with 1 and 10 μM IPAG, and mean FSC-H was measured. FIG. 31E is a graph illustrating that T47D cell size decreases over time. T-47D cells were treated for a total of 48 hours with 10 μM of the indicated Sigma ligands. […] Neither Sigma1 agonist, (+)-SKF10047 and PRE084, altered cell size. […] Two-tailed t-tests were performed to determine statistical significance. For IPAG treatment compared to control (DMSO) and Sigma1 agonists (SKF and PRE084), P=0.0002 at d1 and P<0.0001 at d2. For FIGS. 31B-31E, the mean FSC-H was determined for each cell cycle population (i.e., G1, S, G2/M), and data is shown for G1 phase cells. S and G2/M phase cells responded similarly (data not shown).

Question: What does the source list for N=C(Nc1ccc(I)cc1)NC1C2CC3CC(C2)CC1C3 (centres unmarked) [IPAG, 1-(4-iodophenyl)-3-(2-adamantyl)guanidine]?
Answer: mean FSC-H (relative cell size) (MDA-MB-468 cells; 24 hours): 323±4; mean FSC-H (relative cell size) (MDA-MB-468 cells; 48 hours): 267±2; IRE1α and BiP levels (PC3 and DU145 PCa cells): salient induction of IRE1α and BiP levels; mean FSC-H (relative cell size) ([1]; 24 hours, control 412±5): 341±7 and 331±3; mean FSC-H (relative cell size) ([1]; 48 hours (d2)): 300±2
